Reference: patent US12338256B2, “Aza-tetracyclic oxazepine compounds and uses thereof” (Genentech, Inc., priority 2022, dated 2025)

Tests used:
Assay type in all cases: cell-based
[1] = system: AsPC-1 (homozygous mutant KRAS G12D human pancreatic cell line); experiment: KRAS 3D-Cell Proliferation Assay, AsPC-1 (Example 503); conditions: Homo sapiens, ASPC1, 168 h, AsPC-1 3D culture, 7 days, CellTiter-Glo 3D; read-out: Prolif AsPC-1 3D ATP IC50
In short: (§1)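 IC50s come from a 4-parameter Hill fit of luminescence (CellTiter-Glo 3D) normalized between DMSO (0%) and 1 μM staurosporine (100%). Cells in low-attachment 3D culture, RPMI-1640 with 10% FBS, received serial compound dilutions (0.3% DMSO) after overnight and were incubated 7 days at 37 °C.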

[2] = system: HPAC (homozygous mutant KRAS G12D human pancreatic cell line); experiment: KRAS 3D-Cell Proliferation Assay, HPAC (Example 503); conditions: Homo sapiens, HPAC, 168 h, HPAC 3D culture, 7 days, CellTiter-Glo 3D; read-out: Prolif HPAC 3D ATP IC50
In short: as §1

[3] = system: PC-9 (KRAS wild type human lung adenocarcinoma cell line); experiment: KRAS 3D-Cell Proliferation Assay, PC-9 (Example 503); conditions: 168 h, PC-9 3D culture, 7 days, CellTiter-Glo 3D, read-out: Prolif PC9 3D ATP IC50
Experimental: Example 503: KRAS 3D-Cell Proliferation Assays. Cellular potencies of compounds are assessed by evaluating inhibition of proliferation in 3D cultures of homozygous mutant KRAS G12D human pancreatic cell lines (AsPC-1 and HPAC) as compared to a KRAS wild type human lung adenocarcinoma cell line (PC-9 and/or H1975). Cells are seeded into 384-well black round-bottom, ultra-low attachment assay plates in 50 uL cell growth medium (RPMI-1640 with 10% fetal bovine serum and 2 mM L-glutamine). After overnight incubation at 37° C. and 5% CO2, compounds solubilized in DMSO are added as dilution series to the wells in a total volume of 150 nL (0.3% DMSO final). The cells are incubated for 7 days at 37° C. and 5% CO2. Cell proliferation is quantitated by addition of 40 uL/well of CellTiter-GloÒ 3D (Promega), and the well contents are mixed 20× at high speed using liquid handling automation workstation (Bravo with 384-well head) and centrifuged at 1500 rpm for 2 minutes to eliminate bubbles. This reagent in combination with mechanical disruption releases the cellular ATP to promote activity in a luciferase-based enzyme/substrate chemiluminescent detection system. After a 30-minute incubation under ambient conditions with shaking and an additional 10 minutes without shaking, the luminescence is read on a plate reader (e.g., EnVision [PerkinElmer]). The results are normalized to percent inhibition based on the following control samples: DMSO (0% inhibition) and 1 μM staurosporine (100% inhibition). The normalized luminescence results are plotted against compound concentration, and the data are fit to a 4-parameter Hill equation to determine the IC50 values.

[4] = system: H1975 (KRAS wild type human lung adenocarcinoma cell line); experiment: KRAS 3D-Cell Proliferation Assay, H1975 (Example 503); conditions: Homo sapiens, NCI-H1975, 168 h, H1975 3D culture, 7 days, CellTiter-Glo 3D; read-out: Prolif H1975 3D ATP IC50
In short: as §1

C[C@@H]1Oc2nc(-c3cccc4cccc(Cl)c34)c(F)c3nc(OC[C@@]45CCCN4C[C@H](F)C5)nc(c23)N2C[C@H]3CC[C@H](N3)[C@@H]12 [Compound 8, (5S,5aS,6S,9R)-2-(8-chloronaphthalen-1-yl)-1-fluoro-12-(((2R,7aS)-2-fluorotetrahydro-1H-pyrrolizin-7a(5H)-yl)methoxy)-5-methyl-5a,6,7,8,9,10-hexahydro-5H-4-oxa-3,10a,11,13,14-pentaaza-6,9-methanonaphtho[1,8-ab]heptalene]
IC50 [1]: 72 nM | IC50 [2]: 87.3 nM | IC50 [3]: 3.92 µM | IC50 [4]: 4310 nM

Cc1cc(N)cc(-c2nc3c4c(nc(OC[C@@]56CCCN5C[C@H](F)C6)nc4c2F)N2C[C@H]4CC[C@H](N4)[C@H]2[C@H](C)O3)c1C(F)(F)F [Compound 16, 3-((5S,5aS,6S,9R)-1-fluoro-12-(((2R,7aS)-2-fluorotetrahydro-1H-pyrrolizin-7a(5H)-yl)methoxy)-5-methyl-5a,6,7,8,9,10-hexahydro-5H-4-oxa-3,10a,11,13,14-pentaaza-6,9-methanonaphtho[1,8-ab]heptalen-2-yl)-5-methyl-4-(trifluoromethyl)aniline]
IC50 [1]: 1.3 nM | IC50 [2]: 0.7 nM | IC50 [3]: ≥ 20 µM | IC50 [4]: 255 nM

C=C1CN2CCC[C@@]2(COc2nc3c4c(nc(-c5cc(N)c(F)c(C)c5C(F)(F)F)c(F)c4n2)O[C@@H](C)[C@@H]2[C@@H]4CC[C@H](CN32)N4)C1 [Compound 57, 2-Fluoro-5-((5S,5aS,6S,9R)-1-fluoro-5-methyl-12-(((S)-2-methylenetetrahydro-1H-pyrrolizin-7a(5H)-yl)methoxy)-5a,6,7,8,9,10-hexahydro-5H-4-oxa-3,10a,11,13,14-pentaaza-6,9-methanonaphtho[1,8-ab]heptalen-2-yl)-3-methyl-4-(trifluoromethyl) aniline]
IC50 [1]: 0.361 nM | IC50 [2]: 2.59 nM | IC50 [3]: 3.11 µM | IC50 [4]: 251 nM

C[C@@H]1Oc2nc(-c3cc(N)c(F)cc3C(F)(F)F)c(F)c3nc(OC[C@@]45CCCN4C[C@H](F)C5)nc(c23)N2C[C@H]3CC[C@H](N3)[C@@H]12 [Compound 14, 2-fluoro-5-((5S,5aS,6S,9R)-1-fluoro-12-(((2R,7aS)-2-fluorotetrahydro-1H-pyrrolizin-7a(5H)-yl)methoxy)-5-methyl-5a,6,7,8,9,10-hexahydro-5H-4-oxa-3,10a,11,13,14-pentaaza-6,9-methanonaphtho[1,8-ab]heptalen-2-yl)-4-(trifluoromethyl)aniline]
IC50 [1]: 5.62 nM | IC50 [2]: 11.3 nM | IC50 [3]: 6.21 µM | IC50 [4]: 2510 nM

C[C@@H]1Oc2nc(-c3cncc4cccc(Cl)c34)c(F)c3nc(OC[C@@]45CCCN4C[C@H](F)C5)nc(c23)N2C[C@H]3CC[C@H](N3)[C@@H]12 [Compound 38, (5S,5aS,6S,9R)-2-(5-Chloroisoquinolin-4-yl)-1-fluoro-12-(((2R,7aS)-2-fluorotetrahydro-1H-pyrrolizin-7a(5H)-yl)methoxy)-5-methyl-5a,6,7,8,9,10-hexahydro-5H-4-oxa-3,10a,11,13,14-pentaaza-6,9-methanonaphtho[1,8-ab]heptalene]
IC50 [1]: 270 nM | IC50 [2]: 96.1 nM | IC50 [3]: 7.38 µM | IC50 [4]: 2830 nM

C[C@@H]1Oc2nc(-c3cncc4ccccc34)c(F)c3nc(OC[C@@]45CCCN4CC4(CC4(F)F)C5)nc(c23)N2C[C@H]3CC[C@H](N3)[C@@H]12 (stereo partly drawn) [Compound 30, (5S,5aS,6S,9R)-12-(((7a′S)-2,2-difluorodihydro-1′H,3′H-spiro[cyclopropane-1,2′-pyrrolizin]-7a′(5′H)-yl)methoxy)-1-fluoro-2-(isoquinolin-4-yl)-5-methyl-5a,6,7,8,9,10-hexahydro-5H-4-oxa-3,10a,11,13,14-pentaaza-6,9-methanonaphtho[1,8-ab]heptalene]
IC50 [1]: 166 nM | IC50 [2]: 154 nM | IC50 [3]: 3.81 µM | IC50 [4]: 2890 nM

Cc1c(F)c(N)cc(-c2nc3c4c(nc(OC[C@@]56CCCN5C[C@H](F)C6)nc4c2F)N2C[C@H]4CC[C@H](N4)[C@H]2[C@H](C)O3)c1Cl [Compound 76, 4-Chloro-2-fluoro-5-((5S,5aS,6S,9R)-1-fluoro-12-(((2R,7aS)-2-fluorotetrahydro-1H-pyrrolizin-7a(5H)-yl)methoxy)-5-methyl-5a,6,7,8,9,10-hexahydro-5H-4-oxa-3,10a,11,13,14-pentaaza-6,9-methanonaphtho[1,8-ab]heptalen-2-yl)-3-methylaniline]
IC50 [1]: 14.1 nM | IC50 [2]: 4.62 nM | IC50 [3]: 5.71 µM | IC50 [4]: 248 nM

C=C1CN2CCC[C@@]2(COc2nc3c4c(nc(-c5cc(O)cc6cccc(CC)c56)c(F)c4n2)O[C@@H](C)[C@@H]2[C@@H]4CC[C@H](CN32)N4)C1 [Compound 80, 5-Ethyl-4-((5S,5aS,6S,9R)-1-fluoro-5-methyl-12-(((S)-2-methylenetetrahydro-1H-pyrrolizin-7a(5H)-yl)methoxy)-5a,6,7,8,9,10-hexahydro-5H-4-oxa-3,10a,11,13,14-pentaaza-6,9-methanonaphtho[1,8-ab]heptalen-2-yl)naphthalen-2-ol]
IC50 [1]: 5.08 nM | IC50 [2]: 2.76 nM | IC50 [3]: 4.05 µM | IC50 [4]: 924 nM

Cc1cc(N)nc(-c2nc3c4c(nc(OC[C@@]56CCCN5CC5(CC5(F)F)C6)nc4c2F)N2C[C@H]4CC[C@H](N4)[C@H]2[C@H](C)O3)c1C(F)(F)F (stereo partly drawn) [Compound 47, 6-((5S,5aS,6S,9R)-12-(((7a′S)-2,2-difluorodihydro-1′H,3′H-spiro[cyclopropane-1,2′-pyrrolizin]-7a′(5′H)-yl)methoxy)-1-fluoro-5-methyl-5a,6,7,8,9,10-hexahydro-5H-4-oxa-3,10a,11,13,14-pentaaza[6,9]methanonaphtho[1,8-ab]heptalen-2-yl)-4-methyl-5-(trifluoromethyl)pyridin-2-amine]
IC50 [1]: 3.97 nM | IC50 [2]: 2.95 nM | IC50 [3]: 8.84 µM | IC50 [4]: 1530 nM

CCc1cccc2cc(O)cc(-c3nc4c5c(nc(OC[C@@]67CCCN6C[C@H](F)C7)nc5c3F)N3C[C@H]5CC[C@H](N5)[C@H]3[C@H](C)O4)c12 [Compound 10, 5-ethyl-4-((5S,5aS,6S,9R)-1-fluoro-12-(((2R,7aS)-2-fluorotetrahydro-1H-pyrrolizin-7a(5H)-yl)methoxy)-5-methyl-5a,6,7,8,9,10-hexahydro-5H-4-oxa-3,10a,11,13,14-pentaaza-6,9-methanonaphtho[1,8-ab]heptalen-2-yl)naphthalen-2-ol]
IC50 [1]: 4.93 nM | IC50 [2]: 5.96 nM | IC50 [3]: 6.67 µM | IC50 [4]: 2270 nM

C#Cc1cccc2cc(O)cc(-c3nc4c5c(nc(OC[C@@]67CCCN6C[C@H](F)C7)nc5c3F)N3C[C@H]5CC[C@H](N5)[C@H]3CO4)c12 [Compound 3, 5-ethynyl-4-((5aS,6S,9R)-1-fluoro-12-(((2R,7aS)-2-fluorotetrahydro-1H-pyrrolizin-7a(5H)-yl)methoxy)-5a,6,7,8,9,10-hexahydro-5H-4-oxa-3,10a,11,13,14-pentaaza-6,9-methanonaphtho[1,8-ab]heptalen-2-yl)naphthalen-2-ol]
IC50 [1]: 6.72 nM | IC50 [2]: 11.2 nM | IC50 [3]: ≥ 20 µM | IC50 [4]: 202 nM

Cc1c(F)c(N)cc(-c2nc3c4c(nc(OC[C@@H]5CC(F)(F)CN5C)nc4c2F)N2C[C@H]4CC[C@H](N4)[C@H]2[C@H](C)O3)c1C(F)(F)F [Compound 65, 5-((5S,5aS,6S,9R)-12-(((S)-4,4-Difluoro-1-methylpyrrolidin-2-yl)methoxy)-1-fluoro-5-methyl-5a,6,7,8,9,10-hexahydro-5H-4-oxa-3,10a,11,13,14-pentaaza-6,9-methanonaphtho[1,8-ab]heptalen-2-yl)-2-fluoro-3-methyl-4-(trifluoromethyl)aniline]
IC50 [1]: 64.3 nM | IC50 [2]: 19.6 nM | IC50 [3]: 7.53 µM | IC50 [4]: 7960 nM

Cc1cc(N)cc(-c2nc3c4c(nc(OC[C@]56CCN5CC(F)(F)C6)nc4c2F)N2C[C@H]4CC[C@H](N4)[C@H]2[C@H](C)O3)c1C(F)(F)F [Compound 60, 3-((5S,5aS,6S,9R)-12-(((R)-3,3-Difluoro-1-azabicyclo[3.2.0]heptan-5-yl)methoxy)-1-fluoro-5-methyl-5a,6,7,8,9,10-hexahydro-5H-4-oxa-3,10a,11,13,14-pentaaza-6,9-methanonaphtho[1,8-ab]heptalen-2-yl)-5-methyl-4-(trifluoromethyl)aniline]
IC50 [1]: 3.48 nM | IC50 [2]: 2.59 nM | IC50 [3]: 16.5 µM | IC50 [4]: 720 nM
